Experiments:
[1] = Solubility in an electrolyte (ultraviolet-visible absorption spectrum and visual inspection), Test Example 1; format: physicochemical; conditions: 5.0 mmol/l in 1.0 mol/L lithium fluoroborate in propylene carbonate
Description: The solubility of the phenanthrenequinone-containing compounds and the phenanthrenequinone-containing polymers obtained in Examples 1 to 10 in an electrolyte was evaluated in the following manner.
A phenanthrenequinone-containing compound or a phenanthrenequinone-containing polymer as obtained in Examples 1 to 10 was mixed with 20 cc of an electrolyte so as to attain a concentration of 5.0 mmol/l, thereby giving a test liquid. This test liquid was subjected to ultraviolet-visible absorption spectrum measurement to examine the solubility of each compound in the electrolyte. The ultraviolet-visible absorption spectrum measurement was performed under the following measurement conditions: a measurement range of 190 to 900 nm and a reference solution of a liquid electrolyte. A UV-2550 (trade name) manufactured by SHIMADZU CORPORATION was used as the measurement apparatus. A liquid electrolyte prepared by dissolving lithium fluoroborate in a concentration of 1.0 mol/L in propylene carbonate was used as the electrolyte.
As a comparative example, a solubility test was performed in the same manner as described above using 9,10-phenanthrenequinone.

[2] = Coin battery charge-discharge test (metal lithium negative electrode), Test Example 3
Excerpt: A coin battery as shown in FIG. 5 was fabricated as one example of the power storage device of the present invention. FIG. 5 is a vertical cross-sectional view schematically showing a configuration of a coin battery 1 that is one example of the power storage device of the present invention.
A positive electrode includes a positive electrode current collector 12 made of an aluminum foil and a positive electrode active material layer 13 formed on the positive electrode current collector 12 and containing the phenanthrenequinone-containing compound (1a). The positive electrode was produced in the same manner as in the electrode production method in Test Example 2. This positive electrode was disposed such that the positive electrode current collector 12 was brought into contact with the inner surface of a case 11, and a separator 14 made of a porous polyethylene sheet was placed on the positive electrode.
Then, a non-aqueous electrolyte was injected into the case 11. As the non-aqueous electrolyte, an electrolyte prepared by dissolving lithium hexafluorophosphate in a concentration of 1.25 mol/L in a solvent mixture containing ethylene carbonate and ethylmethyl carbonate (weight ratio 1:3) was used. […]
The charge-discharge capacity was calculated based on the initial discharge capacity of each of the coin batteries. […]

[3] = Cyclic voltammetry of evaluation battery (electrode properties), Test Example 2; format: physicochemical
Description: The electrode properties of the phenanthrenequinone-containing compound (1a) obtained in Example 1 were examined in the following manner. First, in an argon box equipped with a gas purifier, 20 mg of the phenanthrenequinone-containing compound (1a) serving as an electrode active material and 20 mg of acetylene black serving as a conductive auxiliary agent were uniformly mixed under an argon gas atmosphere. To the resultant mixture was added 1 ml of N-methyl-2-pyrrolidone serving as a solvent, and 5 mg of polyvinylidene fluoride serving as a binder was further added thereto, followed by uniform mixing, to prepare a black slurry. The binder was used in order to bond the electrode active material and the conductive auxiliary agent together.
The slurry thus obtained was applied to the surface of a 20 μm-thick aluminum foil (current collector), and vacuum-dried for 2 hours at room temperature. After drying, a disc having a diameter of 13.5 mm was punched out of the resultant structure to produce an electrode in which an active material layer containing a mixture of the electrode active material, the conductive auxiliary agent, and the binder was formed.
The electrode thus obtained was used as a working electrode, and metal lithium was used for a counter electrode and a reference electrode. These electrodes were immersed in an electrolyte to fabricate an evaluation battery, and the potential sweeping was performed in a potential range from 2.0 to 4.0 V relative to lithium. The sweeping rate was 0.1 mV/sec. As the electrolyte, a liquid electrolyte prepared by dissolving lithium fluoroborate in a concentration of 1.0 mol/L in a solvent mixture containing propylene carbonate and ethylene carbonate (volume ratio 1:1) was used. FIG. 4 is a cyclic voltammogram of the evaluation battery using the electrode active material of the present invention [phenanthrenequinone-containing compound (1a)].

[4] = relative to lithium, sweep 2.0 to 4.0 V, 0.1 mV/sec

| Compound | observation by visual inspection of electrolyte (coloration, dissolution) [1] | absorption peak in ultraviolet-visible absorption spectrum of test liquid (solubility in electrolyte) ([1]; measurement range 190 to 900 nm) | appearance of electrolyte when battery disassembled after charging and discharging [2] | reversibility of redox reaction ([3]; cyclic voltammogram, FIG. 4) | dissolution from the electrode ([3]; during potential sweeping in liquid electrolyte) | current peak indicating the oxidation reaction [3, 4] | current peak indicating the second-step reduction reaction [3, 4] | current peak indicating the first-step reduction reaction ([3]; relative to lithium, sweep 2.0 to 4.0 V, 0.1 mV/sec, 1.0 mol/L lithium fluoroborate in propylene carbonate/ethylene carbonate 1:1) |
| --- | --- | --- | --- | --- | --- | --- | --- | --- |
| O=C1C(=O)c2ccccc2-c2ccccc21 [9,10-phenanthrenequinone] | colored in yellow, as a result of the compound being entirely dissolved in the electrolyte | a large absorption peak was observed near 250 to 350 nm | green coloration of the electrolyte | – | – | – | – | – |
| O=C1C(=O)c2cc(-c3ccc(-c4ccc5c(c4)C(=O)C(=O)c4ccccc4-5)cc3)ccc2-c2ccccc21 [Compound 1a, 1,4-(9,10-phenanthraquinone)-benzene] | – | – | – | underwent a reversible redox reaction | no dissolution | around 3.5 V | around 2.6 V | around 3.1 V |
